Source: patent publication US20250381166A1, “Cannabis-Derived Flavonoids And Related Methods” (CANURTA INC., priority 2022, published 2025)

What was measured:
nuclear Arc protein = settings: 16.7 μM co-applied with recombinant BDNF for 6 h; cited from earlier work
[1] = test system: Neuro2a cells stably expressing Ntrk2-Myc-FLAG; assay: Neurite outgrowth assessment; format: cell-based; settings: 10 μM with BDNF
Method: For neurite outgrowth assay, Neuro2a cells were cultured in DMEM [supplemented with 10% HyClone FetalClone II serum (Cytiva, Global Life Sciences Solutions, Marlborough, MA), penicillin (50 units/ml), and streptomycin (50 μg/ml)] and transfected overnight using Lipofectamine 2000 (Invitrogen) according to the manufacturer's protocol.
Neuro2A cells transfected with a pCMV6-Ntrk2-Myc-DDK (FLAG) construct were selected with G418 (Geneticin) to produce a stable cell line that constitutively expresses tagged-TrkB. For neurite outgrowth assessment, cells were seeded on 15 mm glass coverslips in 12-well plates at a density of 2.0×10^4 per well. […] Phase contrast digital images were collected with a 20× objective 48 h after plating and the total number of viable cells, total number of neurites, and cells with neurites longer than 2 cells in diameter were counted (five fields per dish, three wells per condition).

Mapk = Mapk phosphorylation, western blot, Neuro2a cells stably expressing Ntrk2-Myc-FLAG; format: cell-based; settings: with BDNF
U87 GBM cells [2] = assay: AlamarBlue cell viability, U87; format: cell-based; settings: 24, 48 and 72 hours, vs DMSO
Method: (§1) FIG. 6. Cannflavins A and B reduce the viability of Glioblastoma cells. Cell viability was measured using an AlamarBlue reaction after 24, 48, and 72 hours of treatment. […] Graphs represent mean±SEM.

A172 GBM cells [3] = assay: AlamarBlue cell viability, A172; format: cell-based; settings: 24, 48 and 72 hours, vs DMSO
Method: as §1

A172 GBM cells [4] = assay: Boyden Chamber invasion assay; format: cell-based; settings: 10 μM; for GBM cell invasion: 24 hours
Method: FIG. 9. […] Boyden Chamber assay was performed on A172 GBM cells to analyze minimal doses (10 μM) of TrkB inhibitors on preventing GBM cell invasion. Cells were pretreated in low serum media for 24 hours. Bottoms of transwell inserts were coated with fibronectin and tops were coated with Matrigel prior to cells being seeded with treatment media (low serum; n=3 per treatment). After 24 hours, cells were cleaned off the top of the Matrigel, and cells that invaded into the pores of the transwell were stained with 1% Crystal Violet and (A) imaged at 20×.

medulloblastoma cell = settings: TrkB inhibition; cited from earlier work
nuclear Arc = assay: BDNF-induced nuclear Arc, fluorescent immunocytochemistry, primary cortical neurons; format: cell-based, mouse; settings: 10 μM co-treated with BDNF; vs BDNF-alone control
Method: Indirect immunofluorescence detection of antigens was carried out using cortical neurons cultured on poly-L-lysine/laminin coated coverslips in 24-well plates at a density of 0.1′10^6 per well. After experimental treatment, cells were washed twice with phosphate-buffered saline (PBS) and fixed for 30 min at room temperature with 4% paraformaldehyde in PBS. After fixation, cells were washed twice with PBS, permeabilized with PBST (PBS and 0.25% Triton X-100) for 20 min, blocked in blocking solution (5% goat non-immune serum in PBS) for another 30 min, and finally incubated overnight at 4° C. with the first primary antibody in blocking solution. The next day, coverslips were extensively washed with PBS and incubated for 2 hours at room temperature in the appropriate fluorophore-conjugated secondary antibody solution [Alexa Fluor 488-, Alexa Fluor 594, or Alexa Fluor 647-conjugated secondary antibody (Molecular Probes, Invitrogen) in blocking solution]. After washes with PBS, the coverslips were incubated again overnight in primary antibody solution for the second antigen, and the procedure for conjugation of the fluorophore-conjugated secondary antibody was repeated as above. Finally, cell nuclei were counterstained with 4′,6-diamidino-2-phenylindole (DAPI), and coverslips were mounted on glass slides with ProLong Antifade reagent (Invitrogen).
Cells cultured on coverslips from three independent biological replicates were imaged with a Nikon Eclipse Ti2-E inverted microscope equipped with a motorized stage, image stitching capability, and a 60× objective (Nikon Instruments, Melville, NY). Image analysis was performed with ImageJ and NIS Elements and the following procedure was used to quantify nuclear Arc level in response to BDNF-TrkB signaling. First, original raw tiff files were opened and the nucleus of all neurons in the image was located based on MAP2 immunostaining, then average pixel intensity corresponding to Arc immunofluorescence was measured for a 30-pixel spot positioned at the center of the nuclear compartment. […]

[5] = test system: Ras-Raf-MEK-MAPK and PI3K/AKT/mTOR cascades; assay: Signaling downstream of TrkB, western blot, primary cortical neurons; settings: BDNF-induced increase; 0, 1, 5, 10, 20 μM
Method: Developing cerebral cortex from E16.5 CD-1 mouse embryos were dissected and then dissociated in trypsin solution for 15 min followed by three washes with phosphate-buffered saline (PBS). Trypsinized tissue was gently triturated to produce single cell suspension. Next, cells were seeded in poly-L-lysine/laminin coated 6-well plates at a density of 1.5×10^6 per well and maintained in Neurobasal medium containing B27 supplement (2%, Invitrogen, Grand Island, NY), penicillin (50 U/ml, Invitrogen), streptomycin (50 μg/ml, Invitrogen) and glutamine (1 mM, Sigma). For experiments involving BDNF (PeproTech, Rocky Hill, NJ), the growth factor was added directly to the culture medium at a final concentration of 100 ng/ml for the indicated period of time.
For western blot analyses, cells were collected by scraping in ice-cold radioimmunoprecipitation assay (RIPA) buffer (50 mM tris-HCl [pH 8.0], 300 mM NaCl, 0.5% Igepal-630, 0.5% deoxycholic acid, 0.1% SDS, 1 mM EDTA) supplemented with a cocktail of protease inhibitors (Complete Protease Inhibitor without EDTA, Roche Applied Science, Indianapolis, IN) and phosphatase inhibitors (Phosphatase Inhibitor Cocktail 3, Sigma-Aldrich). One volume of 2× Laemmli buffer (100 mM tris-HCl [pH 6.8], 4% SDS, 0.15% bromophenol blue, 20% glycerol, 200 mM b-mercaptoethanol) was added and the extracts were boiled for 5 min. Samples were adjusted to an equal concentration after protein concentrations were determined using the BCA assay (Pierce, Thermo Fisher Scientific). Lysates were separated using SDS-PAGE (polyacrylamide gel electrophoresis) and transferred to a nitrocellulose membrane. After transfer, the membrane was blocked in TBST (tris-buffered saline and 0.1% Tween 20) supplemented with 5% nonfat powdered milk and probed with the indicated primary antibody at 4° C. overnight. After washing with TBST, the membrane was incubated with the appropriate secondary antibody and visualized using enhanced chemiluminescence (ECL) reagents according to the manufacturer's guidelines (Pierce, Thermo Fisher Scientific).

Arc protein = assay: BDNF-induced Arc expression, western blot, primary cortical neurons; format: cell-based, mouse; settings: BDNF co-treatment, tested 1 to 20 μM
Method: The following procedure was used to quantify western blot analyses. First, equal quantity of protein lysate was analyzed by SDS-PAGE for each biological replicate. Second, the exposure time of the film to the ECL chemiluminescence was the same for each biological replicate. Third, all the exposed films were scanned on a HP Laser Jet Pro M377dw scanner in grayscale at a resolution of 300 dpi. Fourth, the look-up table (LUT) of the scanned tiff images was inverted and the intensity of each band was individually estimated using the selection tool and the histogram function in Adobe Photoshop CC 2021 software. Finally, the intensity of each band was divided by the intensity of its respective loading control (b-actin) to provide the normalized value used for statistical analysis.

U87 GBM cells [6] = assay: Scratch migration analysis, U87; settings: 24 hours of treatment
A172 GBM cells [7] = assay: LDH cytotoxicity assay, A172; format: cell-based; settings: 24 hours, compared to DMSO
Arc mRNA = Arc mRNA real-time reverse transcriptase PCR, primary cortical neurons; format: cell-based, mouse; settings: 10 μM with BDNF; vs BDNF-alone control
U87 GBM cells [8] = assay: LDH cytotoxicity assay, U87; format: cell-based; settings: 24 hours, compared to DMSO
[9] = test system: prostaglandin E2 production; settings: inhibitors of prostaglandin E2 production; cited from earlier work
[10] = test system: 320 distinct nonolfactory human GPCRs; assay: PRESTO-Tango GPCR assay (GPCRome panel); settings: 10 μM; quadruplicate
A172 GBM cells [11] = assay: Scratch migration analysis, A172; settings: 24 hours of treatment
GPR150 = target: T1, GPR150 (Homo sapiens, UniProt Q8NGU9); assay: PRESTO-Tango GPCR assay, GPR150; format: cell-based; settings: 10 μM
T1 construct: expressed in transfected cells
T1 sequence (Q8NGU9 whole entry): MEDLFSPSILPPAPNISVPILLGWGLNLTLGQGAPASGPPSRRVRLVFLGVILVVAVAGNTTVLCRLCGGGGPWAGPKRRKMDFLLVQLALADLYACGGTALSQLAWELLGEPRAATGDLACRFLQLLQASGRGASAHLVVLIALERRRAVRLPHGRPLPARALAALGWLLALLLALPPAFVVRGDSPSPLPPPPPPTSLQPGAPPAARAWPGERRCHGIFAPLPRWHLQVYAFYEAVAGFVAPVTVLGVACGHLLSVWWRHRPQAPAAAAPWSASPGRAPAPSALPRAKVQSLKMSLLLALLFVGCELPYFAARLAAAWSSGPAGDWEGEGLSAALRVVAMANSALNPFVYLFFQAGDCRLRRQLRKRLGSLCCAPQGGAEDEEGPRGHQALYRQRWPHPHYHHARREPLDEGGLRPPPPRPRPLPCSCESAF

O=c1cc(-c2ccccc2)oc2c(O)c(O)ccc12 [7,8-DHF, 7,8-dihydroxyflavone]
nuclear Arc protein level (nuclear Arc protein): enhance nuclear Arc protein level above the control measure

O=C(Nc1ccccc1C(=O)NC1CCCCNC1=O)c1cc2ccccc2s1 (stereo not shown) [ANA-12]
number of cells with neurites twice the length of the cell ([1]; 24-hour treatment): decrease | total number of neurites per field ([1]; 24-hour treatment): decrease | viable cells ([1]; 24-hour treatment): decrease | P-Mapk levels (Mapk): did not observe a decrease | cell viability (AlamarBlue) (U87 GBM cells [2]): reduced cell viability | cell viability (AlamarBlue) (A172 GBM cells [3]): reduced cell viability | GBM cell invasion (A172 GBM cells [4]): decrease in GBM cell invasion | medulloblastoma cell survival (medulloblastoma cell): reduced medulloblastoma cell survival by inducing apoptosis

Oc1cc(O)c2c(c1)O[C@H](c1cc(O)c(O)c(O)c1)[C@H](O)C2 [ECGC, (−)-epigallocatechin]
percentage of nuclei with Arc expression above threshold (Arc-positive neuronal abundance) (nuclear Arc): moderate increase | nuclear Arc protein level (nuclear Arc protein): enhance nuclear Arc protein level above the control measure

O=C(O)[C@H]1O[C@@H](Oc2cc3oc(-c4ccccc4)cc(=O)c3c(O)c2O)[C@H](O)[C@@H](O)[C@@H]1O [baicalin]
nuclear Arc protein level (nuclear Arc protein): enhance nuclear Arc protein level above the control measure

COc1cc(-c2cc(=O)c3c(O)c(C/C=C(\C)CCC=C(C)C)c(O)cc3o2)ccc1O [cannflavin A]
P-Akt level [5]: sharply reduced | P-MAPK level [5]: sharply reduced | P-mTOR level [5]: sharply reduced | P-rpS6 level [5]: sharply reduced | concentrations resulting in significantly less Arc protein abundance than the BDNF-alone control (Arc protein): 10 to 20 µM | cell migration (U87 GBM cells [6]): reduce the migration | LDH release / cell necrosis (A172 GBM cells [7]): slight increase in LDH release | Arc mRNA abundance (Arc mRNA): prevent induction of Arc mRNA expression | BDNF-induced neurite outgrowths [1]: reduce | LDH release / cell necrosis (U87 GBM cells [8]): slight increase in LDH release | anti-inflammatory potency relative to aspirin [9]: thirty times more potent than aspirin | agonist activity on GPCRs [10]: no effect on any of the 322 different GPCRs tested | cell viability (AlamarBlue) (U87 GBM cells [2]): reduced cell viability | cell viability (AlamarBlue) (A172 GBM cells [3]): reduced cell viability | cell migration (A172 GBM cells [11]): reduce the migration | GBM cell invasion (A172 GBM cells [4]): reduce invasion

COc1cc(-c2cc(=O)c3c(O)c(CC=C(C)C)c(O)cc3o2)ccc1O [cannflavin B]
P-Akt level [5]: sharply reduced | P-MAPK level [5]: sharply reduced | P-mTOR level [5]: sharply reduced | P-rpS6 level [5]: sharply reduced | concentrations resulting in significantly less Arc protein abundance than the BDNF-alone control (Arc protein): 1 to 20 µM | cell migration (U87 GBM cells [6]): reduce the migration | LDH release / cell necrosis (A172 GBM cells [7]): slight increase in LDH release | Arc mRNA abundance (Arc mRNA): prevent induction of Arc mRNA expression | BDNF-induced neurite outgrowths [1]: reduce | LDH release / cell necrosis (U87 GBM cells [8]): slight increase in LDH release | anti-inflammatory potency relative to aspirin [9]: thirty times more potent than aspirin | cell viability (AlamarBlue) (U87 GBM cells [2]): reduced cell viability | increase of GPR150 activity from baseline (GPR150): 4.4 fold-change | cell viability (AlamarBlue) (A172 GBM cells [3]): reduced cell viability | cell migration (A172 GBM cells [11]): reduce the migration | GBM cell invasion (A172 GBM cells [4]): decrease in GBM cell invasion | efficiency in reducing cell invasion compared with the other TrkB inhibitors (A172 GBM cells [4]; no statistical scores): tends to be more efficient in reducing cell invasion than cannflavin A and ANA-12

O=c1c(-c2ccc(O)cc2)coc2cc(O)ccc12 [daidzein]
percentage of nuclei with Arc expression above threshold (Arc-positive neuronal abundance) (nuclear Arc): moderate increase | nuclear Arc protein level (nuclear Arc protein): enhance nuclear Arc protein level above the control measure

O=c1c(-c2ccc(O)cc2)coc2cc(O)cc(O)c12 [genistein]
percentage of nuclei with Arc expression above threshold (Arc-positive neuronal abundance) (nuclear Arc): moderate increase | nuclear Arc protein level (nuclear Arc protein): enhance nuclear Arc protein level above the control measure
